# Laboratory results reported in patent publication US9056876B2, “Substituted 1H-pyrazolo[3′,4′,4,5]thieno[2,3-b]pyridin-3-amine analogs as positive allosteric modulators of the muscarinic acetylcholine receptor M4” (VANDERBILT UNIVERSITY, priority 2011, dated 2015).
# Biological target: T1, mAChR M4 (UniProt P08173)
# T1 construct: hM1 and hM4 cDNAs were purchased from Missouri S&T cDNA Resource
# T1 sequence (P08173 1-479): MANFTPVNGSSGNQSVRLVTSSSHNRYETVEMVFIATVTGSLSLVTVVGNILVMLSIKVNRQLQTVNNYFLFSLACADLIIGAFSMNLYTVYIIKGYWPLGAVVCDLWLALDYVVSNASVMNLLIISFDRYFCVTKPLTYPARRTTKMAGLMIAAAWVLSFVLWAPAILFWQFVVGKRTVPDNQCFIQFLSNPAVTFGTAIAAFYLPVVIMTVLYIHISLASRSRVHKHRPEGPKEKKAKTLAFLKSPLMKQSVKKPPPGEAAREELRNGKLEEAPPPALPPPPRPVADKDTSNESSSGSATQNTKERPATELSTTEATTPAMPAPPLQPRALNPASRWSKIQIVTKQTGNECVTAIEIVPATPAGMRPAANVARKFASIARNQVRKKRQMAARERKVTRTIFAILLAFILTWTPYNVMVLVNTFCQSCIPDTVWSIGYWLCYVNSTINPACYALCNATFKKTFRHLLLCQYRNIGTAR
# Assay: mAChR M4 cell-based functional assay (calcium mobilization, Fluo-4, FDSS)
# Settings: CHO-K1 cells; for pEC50: positive allosteric modulator activity, EC20 acetylcholine response; for EC50: positive allosteric modulator activity: concentration-dependent increase in the EC20 acetylcholine response, >10 μM estimated for low potency (no plateau)
# Procedure, shortened: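 Compound responses (11-point, 1:3 series) were followed as calcium fluorescence ratio on FDSS in Gqi5-coupled M4 CHO-K1 cells (human or rat) loaded with Fluo-4. Acetylcholine followed at EC20 (144 s) then EC80 (230 s). EC50/Emax from four-parameter logistic fits of direct, EC20-potentiating or EC80-inhibiting effects.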
pEC50,EC50 [µM],Structure (SMILES)
<5.00,> 10,"Cc1nc2sc3c(NCc4ccc(F)c(F)c4)n[nH]c3c2c(C)c1Cl [Compound 146, 7-chloro-N-(3,4-difluorobenzyl)-6,8-dimethyl-1H-pyrazolo[3′,4′:4,5]thieno[2,3-b]pyridin-3-amine]"
<5.00,> 10,"Cc1nc2sc3c(Nc4ccncc4)nn(C)c3c2c(C)c1Cl [Compound 148, 7-chloro-1,6,8-trimethyl-N-(pyridin-4-yl)-1H-pyrazolo[3′,4′:4,5]thieno[2,3-b]pyridin-3-amine]"
<5.00,> 10,"Cc1ccc2c(n1)sc1c(NC(=O)c3ccc(Br)cc3)n[nH]c12 [Compound 151, 4-bromo-N-(6-methyl-1H-pyrazolo[3′,4′:4,5]thieno[2,3-b]pyridin-3-yl)benzamide]"
<5.00,> 10,"Cc1ccc2c(n1)sc1c(NC(=O)c3ccc(Br)cc3)nn(C)c12 [Compound 158, 4-bromo-N-(1,6-dimethyl-1H-pyrazolo[3′,4′:4,5]thieno[2,3-b]pyridin-3-yl)benzamide]"
<5.00,> 10,"Cc1ccnc2sc3c(NC(=O)c4ccccc4)nn(C)c3c12 [Compound 159, N-(1,8-dimethyl-1H-pyrazolo[3′,4′:4,5]thieno[2,3-b]pyridin-3-yl)benzamide]"
<5.00,> 10,"Cc1ccnc2sc3c(NCC4CC4)nn(C)c3c12 [Compound 160, N-(cyclopropylmethyl)-1,8-dimethyl-1H-pyrazolo[3′,4′:4,5]thieno[2,3-b]pyridin-3-amine]"

# The next lines start with the molecule.
Structure (SMILES),pEC50,EC50 [µM]
"Cc1nc2sc3c(NCc4ccccc4F)n[nH]c3c2c(C)c1Cl [Compound 147, 7-chloro-N-(2-fluorobenzyl)-6,8-dimethyl-1H-pyrazolo[3′,4′:4,5]thieno[2,3-b]pyridin-3-amine]",<5.00,> 10
"Cc1ccc2c(n1)sc1c(N)n[nH]c12 [Compound 149, 6-methyl-1H-pyrazolo[3′,4′:4,5]thieno[2,3-b]pyridin-3-amine]",<5.00,> 10
"Cc1ccc2c(n1)sc1c(NC(=O)c3ccccc3)n[nH]c12 [Compound 150, N-(6-methyl-1H-pyrazolo[3′,4′:4,5]thieno[2,3-b]pyridin-3-yl)benzamide]",<5.00,> 10
"Cc1cc(C)c2c(n1)sc1c(NC(=O)c3ccccc3)nn(C)c12 [Compound 152, N-(1,6,8-trimethyl-1H-pyrazolo[3′,4′:4,5]thieno[2,3-b]pyridin-3-yl)benzamide]",<5.00,> 10
"Cc1cc(C)c2c(n1)sc1c(NC(=O)C3CCCCC3)nn(C)c12 [Compound 153, N-(1,6,8-trimethyl-1H-pyrazolo[3′,4′:4,5]thieno[2,3-b]pyridin-3-yl)cyclohexanecarboxamide]",<5.00,> 10
"Cc1cc(C)c2c(n1)sc1c(NC(=O)c3ccc(F)cc3)nn(C)c12 [Compound 154, 4-fluoro-N-(1,6,8-trimethyl-1H-pyrazolo[3′,4′:4,5]thieno[2,3-b]pyridin-3-yl)benzamide]",<5.00,> 10
"COc1ccc(Cn2nc(N(C)C)c3sc4nc(C)cc(C)c4c32)cc1 [Compound 155, 1-(4-methoxybenzyl)-N,N,6,8-tetramethyl-1H-pyrazolo[3′,4′:4,5]thieno[2,3-b]pyridin-3-amine]",<5.00,> 10
"Cc1ccc2c(n1)sc1c(NCCC(C)C)n[nH]c12 [Compound 156, N-isopentyl-6-methyl-1H-pyrazolo[3′,4′:4,5]thieno[2,3-b]pyridin-3-amine]",<5.00,> 10
"Cc1ccc2c(n1)sc1c(NC(=O)c3ccccc3)nn(C)c12 [Compound 157, N-(1,6-dimethyl-1H-pyrazolo[3′,4′:4,5]thieno[2,3-b]pyridin-3-yl)benzamide]",<5.00,> 10
